Measurements published in publication PMC7817688, “Identification of 3-chymotrypsin like protease (3CLPro) inhibitors as potential anti-SARS-CoV-2 agents” (Communications Biology, 2021).
Values joined by “and” are separate entries in the source; they are usually repeats but may differ in a detail not shown here. Equal entries are not always repeated. Where two headings read alike, the source gives them in different places. Numbered stars: 1 amine (or outer) side, 2 acyl side, 3 side chain; on linkers, the order of the positions; unused ones are H or OH. Bridge positions count the residues as written; N and C are the ends. Square brackets hold non-standard residues; d marks the D form. Peptide text beside a SMILES is read from it. * marks the point of attachment. hTyr(3S-OH,4S-OH,3'-OSO3H) = N[C@H](C(=O)O)[C@H](O)[C@@H](O)c1ccc(O)c(OS(=O)(=O)O)c1; Orn(4R-OH,5R-OH) = O=C([C@H](C[C@@H](O)[C@@H](O)N[*:3])N[*:1])[*:2]; Pro(3S-OH,4S-Me) = C[C@H]1CN[C@H](C(=O)O)[C@H]1O; X1 = CCCCCOc1ccc(-c2cc(-c3ccc(C(=O)*)cc3)no2)cc1; Gln(3R-OH) = NC(=O)C[C@@H](O)[C@H](N)C(=O)O; Hyp = O=C(O)[C@@H]1C[C@@H](O)CN1

Target: SARS-CoV-2 3CLpro enzyme (Severe acute respiratory syndrome coronavirus 2, UniProt P0DTD1)
Assay: biochemical
Details: for percent enzymatic activity, individual values / percent enzymatic activity, AVG: DMSO treated control = 100%, data of Figs. 2-4; for percent enzymatic activity, AVG: mean of 3 values; for IC50: drugs 0 to 100 µM, 50 µM substrate, non-linear four variable fit; for inhibitory effect towards 3CLpro enzymatic activity (in words): in vitro enzymatic assay at the tested doses; for inhibition at 50 µM / inhibition at 100 µM: read-out: inhibition of 3CLpro enzymatic activity
[1] = dose-dependent study, 0.097656 uM, individual values
[2] = dose-dependent study, 0.195313 uM, individual values
[3] = dose-dependent study, 0.390625 uM, individual values
[4] = dose-dependent study, 0.78125 uM, individual values
[5] = dose-dependent study, 1.5625 uM, individual values
[6] = dose-dependent study, 3.125 uM, individual values
[7] = dose-dependent study, 6.25 uM, individual values
[8] = dose-dependent study, 12.5 uM, individual values
[9] = dose-dependent study, 25 uM, individual values
[10] = dose-dependent study, 50 uM, individual values
[11] = dose-dependent study, 100 uM, individual values

## COC(=O)N[C@H](C(=O)N1CCC[C@H]1C(=O)Nc1ccc([C@@H]2CC[C@@H](c3ccc(NC(=O)[C@@H]4CCCN4C(=O)[C@@H](NC(=O)OC)C(C)C)cc3)N2c2ccc(C(C)(C)C)cc2)cc1)C(C)C [Ombitasvir]
50 µM drug
  percent enzymatic activity, individual values: 28.8321% and 35.4015% and 42.7007%
  percent enzymatic activity, AVG: 35.6448%
IC50 for SARS-CoV-2 3CL protease
  IC50: 75.5 µM
[1]
  % activity: 102.678% and 100.823%
  activity at 0.097656 µM: 106%
[2]
  % activity: 97.7299% and 97.8652%
  activity at 0.195313 µM: 106%
[3]
  % activity: 102.06% and 103.288%
  activity at 0.390625 µM: 112%
[4]
  % activity: 107.008% and 95.4001%
  activity at 0.78125 µM: 113%
[5]
  % activity: 102.06% and 100.823%
  activity at 1.5625 µM: 111%
[6]
  % activity: 111.957% and 103.781%
  activity at 3.125 µM: 113%
[7]
  % activity: 105.153% and 107.726%
  activity at 6.25 µM: 115%
[8]
  % activity: 107.627% and 104.767%
  activity at 12.5 µM: 112%
[9]
  % activity: 102.302% and 73.6067% and 103.288%
[10]
  % activity: 98.3582% and 67.4213% and 91.9489%
[11]
  % activity: 61.2358% and 60.8884%
  activity at 100 µM: 64.3%
  inhibitory effect towards 3CLpro enzymatic activity (in words): partial inhibitory effect
  inhibition at 50 µM: 65%
  inhibition at 100 µM: 50%

## CN(C)C(=O)COC(=O)Cc1ccc(OC(=O)c2ccc(NC(=N)N)cc2)cc1 [Camostat]
50 µM drug
  percent enzymatic activity, individual values: 94.4701% and 101.843% and 102.304%
  percent enzymatic activity, AVG: 99.5392%

## CCOC(=O)c1c(CSc2ccccc2)n(C)c2cc(Br)c(O)c(CN(C)C)c12 [Umifenovir]
50 µM drug
  percent enzymatic activity, individual values: 80.6569% and 86.8613% and 87.2263%
  percent enzymatic activity, AVG: 84.9148%

## CC(C)CN(C[C@@H](O)[C@H](Cc1ccccc1)NC(=O)O[C@H]1CO[C@H]2OCC[C@H]21)S(=O)(=O)c1ccc(N)cc1 [Darunavir]
50 µM drug
  percent enzymatic activity, individual values: 90.3226% and 93.0876% and 98.6175%
  percent enzymatic activity, AVG: 94.0092%

## NC[C@H]1O[C@H](O[C@H]2[C@H](O[C@@H]3O[C@H](CO)[C@@H](O)[C@H]3O)[C@@H](O)[C@H](N)C[C@@H]2N)[C@H](N)[C@@H](O)[C@@H]1O [Ribostamycin]
50 µM drug
  percent enzymatic activity, individual values: 96.7864% and 99.3003%
  percent enzymatic activity, AVG: 98.4623%

## CC(C)c1c(C(=O)Nc2ccccc2)c(-c2ccccc2)c(-c2ccc(F)cc2)n1CC[C@@H](O)C[C@@H](O)CC(=O)O [Atrovastatin]
50 µM drug
  percent enzymatic activity, individual values: 92.1569% and 107.843% and 99.0196%
  percent enzymatic activity, AVG: 99.6732%

## Cc1cccc(C)c1OCC(=O)N[C@@H](Cc1ccccc1)[C@@H](O)C[C@H](Cc1ccccc1)NC(=O)[C@H](C(C)C)N1CCCNC1=O [Lopinavir]
50 µM drug
  percent enzymatic activity, individual values: 75.576% and 76.4977% and 84.3318%
  percent enzymatic activity, AVG: 78.8018%
  inhibitory effect towards 3CLpro enzymatic activity (in words): did not exhibit any 3CLpro inhibitory activity

## CCCCCOc1ccc(-c2cc(-c3ccc(C(=O)N[C@H]4C[C@@H](O)[C@@H](O)NC(=O)[C@@H]5[C@@H](O)[C@@H](C)CN5C(=O)[C@H]([C@H](O)CC(N)=O)NC(=O)[C@H]([C@H](O)[C@@H](O)c5ccc(O)c(OS(=O)(=O)O)c5)NC(=O)[C@@H]5C[C@@H](O)CN5C(=O)[C@H]([C@@H](C)O)NC4=O)cc3)no2)cc1 [Micafungin] (X1-[Orn(4R-OH,5R-OH)]T[Hyp][hTyr(3S-OH,4S-OH,3'-OSO3H)][Gln(3R-OH)][Pro(3S-OH,4S-Me)]; lactam 1-C)
50 µM drug
  percent enzymatic activity, individual values: 37.5856% and 41.7364% and 49.3462%
  percent enzymatic activity, AVG: 42.8894%
  inhibition at 50 µM: 57%
[1]
  % activity: 93.428% and 107.627%
dose-dependent study, 0.097656 uM, individual values, read-out: % activity
  activity at 0.097656 µM: 103%
[2]
  % activity: 93.921% and 112.575%
dose-dependent study, 0.195313 uM, individual values, read-out: % activity
  activity at 0.195313 µM: 95.4%
[3]
  % activity: 94.414% and 111.957%
dose-dependent study, 0.390625 uM, individual values, read-out: % activity
  activity at 0.390625 µM: 94.9%
[4]
  % activity: 110.101%
dose-dependent study, 0.78125 uM, individual values, read-out: % activity
  activity at 0.78125 µM: 101%
[5]
  % activity: 99.8373% and 115.049%
dose-dependent study, 1.5625 uM, individual values, read-out: % activity
  activity at 1.5625 µM: 101%
[6]
  % activity: 103.781% and 119.998%
dose-dependent study, 3.125 uM, individual values, read-out: % activity
  activity at 3.125 µM: 105%
[7]
  % activity: 110.101%
dose-dependent study, 6.25 uM, individual values, read-out: % activity
  activity at 6.25 µM: 105%
[8]
  % activity: 103.915%
dose-dependent study, 12.5 uM, individual values, read-out: % activity
  activity at 12.5 µM: 92.9%
[9]
  % activity: 86.0326% and 95.2558%
  activity at 25 µM: 79.6%
[10]
  % activity: 43.6326% and 50.0419% and 67.4213%
[11]
  % activity: 20.9535% and 30.3087%
dose-dependent study, 100 uM, individual values, read-out: % activity
  activity at 100 µM: 19%
read-out: IC50 for SARS-CoV-2 3CL protease
  IC50: 47.6 µM
  inhibitory effect towards 3CLpro enzymatic activity (in words): partial inhibitory effect
100 µM drug
  inhibition at 100 µM: ~80%

## COC(=O)N[C@H](C(=O)N1CCC[C@H]1c1nc2cc([C@H]3CC[C@H](c4cc5nc([C@@H]6CCCN6C(=O)[C@@H](NC(=O)OC)[C@@H](C)OC)[nH]c5cc4F)N3c3cc(F)c(N4CCC(c5ccc(F)cc5)CC4)c(F)c3)c(F)cc2[nH]1)[C@@H](C)OC [Pibrentasvir]
50 µM drug
  percent enzymatic activity, individual values: 62.0438% and 66.4234% and 69.3431%
  percent enzymatic activity, AVG: 65.9367%

## CC(C)(C)[C@@H]1NC(=O)O[C@@H]2CCC[C@H]2OC/C=C/C(F)(F)c2nc3ccccc3nc2O[C@@H]2C[C@@H](C(=O)N[C@]3(C(=O)NS(=O)(=O)C4(C)CC4)C[C@H]3C(F)F)N(C2)C1=O [Glecaprevir]
50 µM drug
  percent enzymatic activity, individual values: 92.7616% and 89.3077% and 94.7353%
  percent enzymatic activity, AVG: 92.2682%

## Maraviroc
50 µM drug
  percent enzymatic activity, individual values: 91.5462% and 88.779% and 142.739%

## Nc1nc(NC2CC2)c2ncn([C@H]3C=C[C@@H](CO)C3)c2n1 [Abacavir]
50 µM drug
  percent enzymatic activity, individual values: 85.8927% and 88.8256% and 90.5015% (2×)
  percent enzymatic activity, AVG: 88.4066%

## COC(=O)N[C@H](C(=O)N[C@@H](Cc1ccccc1)[C@@H](O)CN(Cc1ccc(-c2ccccn2)cc1)NC(=O)[C@@H](NC(=O)OC)C(C)(C)C)C(C)(C)C [Atazanavir]
50 µM drug
  percent enzymatic activity, individual values: 84.3318% and 88.0184% and 91.2442%
  percent enzymatic activity, AVG: 87.8648%

## Cc1cc(C#N)cc(C)c1Oc1nc(Nc2ccc(C#N)cc2)nc(N)c1Br [Etravirine]
50 µM drug
  percent enzymatic activity, individual values: 85.8927% and 97.6243% and 93.0155%
  percent enzymatic activity, AVG: 92.1775%

## CC(C)OC(=O)[C@H](C)N[P@](=O)(OC[C@H]1O[C@@H](n2ccc(=O)[nH]c2=O)[C@](C)(F)[C@@H]1O)Oc1ccccc1 [Sofosbuvir]
50 µM drug
  percent enzymatic activity, individual values: 76.4977% and 78.341% and 81.5668%
  percent enzymatic activity, AVG: 78.8018%

## CC(C)Nc1cccnc1N1CCN(C(=O)c2cc3cc(NS(C)(=O)=O)ccc3[nH]2)CC1 [Delavirdine (mesylate), Delavirdine]
50 µM drug
  percent enzymatic activity, individual values: 93.4344% and 97.6243% and 104.328%
  percent enzymatic activity, AVG: 98.4623%

## Candicidin
50 µM drug
  percent enzymatic activity, individual values: 86.2745% and 80.3922% and 82.3529%
  percent enzymatic activity, AVG: 83.0065%

## CCN(CC)CCCC(C)Nc1ccnc2cc(Cl)ccc12 (stereo not shown) [Chloroquine]
50 µM drug, listed as Chloroquine Phosphate
  percent enzymatic activity, individual values: 103.986% and 93.4637% and 103.367%
50 µM drug
  percent enzymatic activity, AVG: 100.272%
